In brackets after ≈: the same amount, converted by molar mass. Entries after “also recorded” stand apart in the source; their conditions may differ.
How the values were obtained:
[1] = Dynamic vapor sorption (DVS) analysis, hygroscopicity; type: physicochemical; details: for solid form of post-DVS specimen (XRPD): after DVS 5-95-5% RH; for overall water uptake (DVS): 5-95% RH
Experimental: (§1) DVS analysis was carried out using a TA Instruments Q5000 Dynamic Vapor Sorption analyzer. The instrument was calibrated with standard weights and a sodium bromide standard for humidity. Approximately 10-25 mg of sample was loaded into a metal-coated quartz pan for analysis. The sample was analyzed at 25° C. with a maximum equilibration time of one hour in 10% relative humidity (RH) steps from 5 to 95% RH (adsorption cycle) and from 95 to 5% RH (desorption cycle). The movement from one step to the next occurred either after satisfying the equilibrium criterion of 0.01% weight change or, if the equilibrium criterion was not met, after one hour. The percent weight change values were calculated using Microsoft Excel®.
as §1, with “Dynamic Vapor Sorption (DVS)” for “DVS”, “is” for “was”, “is” for “were”, “Excel.” for “Excel®.”

[2] = tested on: Psilocybin Induced Head Twitches in Mice; test: Psilocybin-induced head-twitch response in mice, 5-HT2A antagonist given i.v. after psilocybin; type: in vivo, C57BL/6J mice; details: for Result (suppression of psilocybin-induced head twitch): 5HT2A antagonist i.v. at T=7 min, summary of Examples 13-21; for effect on psilocybin-induced head twitch (summary of Examples 13-21): administered after psilocybin, compared to vehicle-treated mice, dose not given; for suppression of psilocybin-induced head-twitch response: monitored until 40 min
Description: The head-shake response is elicited by a wide variety of known hallucinogens such as LSD, psilocybin, psilocin, N,N-dimethyltryptamine (DMT), and mescaline as well as serotonin-releasing agents and direct 5-HT2 agonists. […] Later studies have confirmed 5-HT2A receptors are the primary, direct mediators of the response and that the headshake response in rats is essentially the same as head-twitches in mice, at least in regards to similarity in appearance and 5-HT2A receptor dependence.
Male C57BL/6J mice (approximately 25 g) were group housed. Animals were maintained under a 12 h light/dark cycle, at 23° C. with humidity controlled.
Psilocybin was formulated in saline at a concentration of 0.4 mg/mL to give a dose of 2 mg/kg when administered i.p. in a 5 mL/kg dosing volume.
(§2) At T=−60 min, C57BL/6J mice were individually housed into transparent observation cages with bedding removed and left to habituate. At T=−3 min, mice were placed into heated cages at 40° C. At T=0 h, groups of 3 mice were dosed intraperitoneally with psilocybin (2 mg/kg). Following dosing, mice were replaced into the heated cages and head-twitch responses continuously scored for 7 min. After 7 min, mice were intravenously dosed via the lateral tail vein with either vehicle 1 (saline) or volinanserin 1 mg/kg in 5 mL/kg dosing volumes. Mice were replaced into the observation cages and head twitch behavior were monitored until 40 min after agonist dosing. Cumulative head-twitches were measured every 2 minutes until 40 minutes after agonist dosing.
as §2, with “min. […]” for “min. After 7 min, mice were intravenously dosed via the lateral tail vein with either vehicle 1 (saline) or volinanserin 1 mg/kg in 5 mL/kg dosing volumes.”, “behavior was” for “behavior were”, “Cumulative head-twitch behavior was” for “Cumulative head-twitches were”
as §2, with “min. […]” for “min. After 7 min, mice were intravenously dosed via the lateral tail vein with either vehicle 1 (saline) or volinanserin 1 mg/kg in 5 mL/kg dosing volumes.”, “behavior was” for “behavior were”, “Cumulative head-twitch behavior was” for “Cumulative head-twitches were”
as §2, with “min. […]” for “min. After 7 min, mice were intravenously dosed via the lateral tail vein with either vehicle 1 (saline) or volinanserin 1 mg/kg in 5 mL/kg dosing volumes.”, “behavior was” for “behavior were”, “Cumulative head-twitch behavior was” for “Cumulative head-twitches were”
as §2, with “min. […]” for “min. After 7 min, mice were intravenously dosed via the lateral tail vein with either vehicle 1 (saline) or volinanserin 1 mg/kg in 5 mL/kg dosing volumes.”, “behavior was” for “behavior were”, “Cumulative head-twitch behavior was” for “Cumulative head-twitches were”

[3] = Hygroscopicity test in relative humidity (RH) jars; type: physicochemical
Experimental: Solids deliquesced within approx. 1 hour of exposure to elevated relative humidity. The sample was capped and placed in a freezer for storage.

[4] = Estimated solubilities of psilocybin (solvent aliquot addition, visual inspection); type: physicochemical; details: room temperature
Description: Solubilities of psilocybin in a few solvents were estimated.

[5] = Estimated aqueous solubility of O-acetyl psilocin salts (aliquot addition method); details: bounds printed as 'Small particles present at ≤ x mg/mL'
Experimental: Whether dissolution had occurred was judged by visual inspection after addition of each solvent aliquot. […] Solubility numbers were calculated by dividing the weight of the sample by the total amount of solvent used to dissolve the sample. […] The solubility number is expressed as “greater than or equal to” if dissolution occurred on addition of the first solvent aliquot.

[6] = C57BL/6J mice, psilocybin 2 mg/kg i.p. at T=0, head twitches scored to 40 min
[7] = antagonist 1 mg/kg i.v. 7 min after psilocybin 2 mg/kg i.p.
[8] = antagonist 4 mg/kg i.v. 7 min after psilocybin 2 mg/kg i.p.

CC(=O)Oc1cccc2[nH]cc(CCN(C)C)c12.O=C(O)C[C@H](O)C(=O)O [L-malate salt, Form B, O-Acetyl Psilocin Malate]
hygroscopicity (DVS), in words ([1]; 5-85% RH): non-hygroscopic | hydrate formation on DVS ([1]; above 85% RH): no hydrate formation occurred | hydrate formation on DVS ([1]; above 85% RH, listed as Malate B): possible hydrate formation | water uptake (DVS) ([1]; above 85% RH, unit not given): approx. 4.500 | solid form of post-DVS specimen (XRPD) [1]: consistent with Form B

Cc1nc2sccn2c(=O)c1CCN1CCC(=C(c2ccc(F)cc2)c2ccc(F)cc2)CC1 [ritanserin]
Result (suppression of psilocybin-induced head twitch) [2, 6]: Full suppression of head twitch | effect on psilocybin-induced head twitch (summary of Examples 13-21) [2]: full ending | suppression of psilocybin-induced head-twitch response [2, 7]: completely suppressed

COc1cccc([C@H](O)C2CCN(CCc3ccc(F)cc3)CC2)c1OC [volinanserin]
Result (suppression of psilocybin-induced head twitch) [2, 6]: Full suppression of head twitch | effect on psilocybin-induced head twitch (summary of Examples 13-21) [2]: full ending | suppression of psilocybin-induced head-twitch response [2, 7]: completely suppressed

CC(=O)Oc1cccc2[nH]cc(CCN(C)C)c12.O=C(O)C(O)C(O)C(=O)O [L-tartrate salt, Form A, O-Acetyl Psilocin Tartrate]
hygroscopicity (DVS), in words ([1]; 5-85% RH): non-hygroscopic | hydrate formation on DVS ([1]; above 85% RH): consistent with hydrate formation | water uptake (DVS) ([1]; above 85% RH): approx. 6% | hydrate formation on DVS ([1]; above 85% RH, listed as Tartrate A): possible hydrate formation | solid form of post-DVS specimen (XRPD) [1]: consistent with Form A by XRPD analysis and exhibited additional diffraction peaks

CC(=O)Oc1cccc2[nH]cc(CCN(C)C)c12.Cl [O-acetyl psilocin hydrochloride]
time to deliquescence ([3]; open vial in 75% RH jar): ≤ 1 h

CC(=O)Oc1cccc2[nH]cc(CCN(C)C)c12.CS(=O)(=O)O [mesylate salt, Form A, O-Acetyl Psilocin Mesylate]
hygroscopicity (DVS), in words ([1]; 5-55% RH): non-hygroscopic | water uptake (DVS) ([1]; above 55% RH): 40% | solid form of post-DVS specimen (XRPD) [1]: liquid

CC(=O)Oc1cccc2[nH]cc(CCN(C)C)c12.O=C(O)C(O)C(O)C(=O)O [L-tartrate, Form A]
hygroscopicity ([1]; 5-85% RH, DVS): non-hygroscopic | hydrate formation (DVS) ([1]; DVS, at high RH): resulting in hydrate | Water uptake ([1]; above 85% RH, DVS): ~6% | hygroscopicity ([1]; above 85% RH, DVS): hygroscopic

CN(C)CCc1c[nH]c2cccc(OP(=O)(O)O)c12 [psilocybin]
solubility ([4]; organic solvent or mixture, thermodynamic from solid, 1,4-dioxane): < 1000 µg/mL | solubility ([4]; organic solvent or mixture, thermodynamic from solid, 2-propanol (2-PrOH)): < 1000 µg/mL | solubility ([4]; organic solvent or mixture, thermodynamic from solid, Acetone): < 1000 µg/mL | solubility ([4]; organic solvent or mixture, thermodynamic from solid, Acetonitrile (ACN)): < 1000 µg/mL | solubility ([4]; organic solvent or mixture, thermodynamic from solid, Dichloromethane (DCM)): < 1000 µg/mL | solubility ([4]; organic solvent or mixture, thermodynamic from solid, Ethanol (EtOH)): < 1000 µg/mL | solubility ([4]; organic solvent or mixture, thermodynamic from solid, Ethyl acetate (EtOAc)): < 1000 µg/mL | solubility ([4]; organic solvent or mixture, thermodynamic from solid, Methanol (MeOH)): 11000 µg/mL (≈ 38.7 mM) | solubility ([4]; organic solvent or mixture, thermodynamic from solid, Tetrahydrofuran (THF)): < 1000 µg/mL | solubility ([4]; thermodynamic from solid, Water): 4000 µg/mL (≈ 14.1 mM) | solid form of post-DVS specimen (XRPD) [1]: converted to a hydrate Form B; also recorded: Crystalline Form B (hydrate)

Maleate
Water solubility [5]: >50000 µg/mL

CC(=O)Oc1cccc2[nH]cc(CCN(C)C)c12.O=C(O)/C=C\C(=O)O [maleate salt, Form A, O-acetyl psilocin maleate]
overall water uptake (DVS) [1]: approx. 0.8% | solid form of post-DVS specimen (XRPD) [1]: consistent with Form A | hygroscopicity (DVS), in words ([1]; whole RH range (5-95% RH)): non-hygroscopic | hygroscopicity (DVS), in words ([1]; whole RH range (5-95% RH), listed as maleate salt): minimal water sorption

CC(=O)Oc1cccc2[nH]cc(CCN(C)C)c12.O=C(O)/C=C/C(=O)O [O-acetylpsilocin-fumarate Form A, O-acetylpsilocin-fumarate]
overall water uptake (DVS) [1]: approx. 0.1% | hygroscopicity (DVS), in words ([1]; whole RH range (5-95% RH)): non-hygroscopic

O=c1[nH]c2ccccc2n1CCN1CCN(c2cccc(C(F)(F)F)c2)CC1 [flibanserin]
Result (suppression of psilocybin-induced head twitch) [2, 6]: Partial suppression of head twitch | effect on psilocybin-induced head twitch (summary of Examples 13-21) [2]: partial suppression | suppression of psilocybin-induced head-twitch response [2, 7]: partially suppressed | suppression of psilocybin-induced head-twitch response [2, 8]: partially suppressed

CC(=O)Oc1cccc2[nH]cc(CCN(C)C)c12.O=P(O)(O)O [phosphate salt (Forms A+B), O-acetyl psilocin phosphate]
hygroscopicity by RH jars, in words ([3]; RH jars): low

COc1ccc(NC(=O)Nc2ccc(F)cc2F)cc1-c1c(Br)cnn1C [nelotanserin]
Result (suppression of psilocybin-induced head twitch) [2, 6]: Partial suppression of head twitch, | Result (suppression of psilocybin-induced head twitch) at high dose ([2]; C57BL/6J mice, psilocybin 2 mg/kg i.p. at T=0, antagonist at high dose (nelotanserin 4 mg/kg i.v.) at T=7 min, head twitches scored to 40 min): full suppression at high dose | effect on psilocybin-induced head twitch (summary of Examples 13-21) [2]: partial suppression | suppression of psilocybin-induced head-twitch response [2, 7]: partially suppressed | suppression of psilocybin-induced head-twitch response [2, 8]: completely suppressed; also recorded: completed suppressed

N#Cc1c[nH]c2c(C(=O)N3CCN(CCc4ccc(F)cc4)CC3)cccc12 [pruvanserin]
Result (suppression of psilocybin-induced head twitch) [2, 6]: Full suppression of head twitch | effect on psilocybin-induced head twitch (summary of Examples 13-21) [2]: full ending | suppression of psilocybin-induced head-twitch response [2, 7]: completely suppressed

O=C(c1ccc(F)cc1)C1CCN(CCn2c(=O)[nH]c3ccccc3c2=O)CC1 [ketanserin]
suppression of psilocybin-induced head-twitch response ([2]; antagonist 2 mg/kg i.v. 7 min after psilocybin 2 mg/kg i.p.): completely suppressed

— patent US11945832B2, “Psilocybin and O-acetylpsilocin, salts and solid state forms thereof” (Terran Biosciences Inc., priority 2021, dated 2024)
